We go through 80 molecules from US20090149455A1, “Use of Triazolopyrimidines for Controlling Plant Diseases on Legumes” (Bayer CropScience AG, priority 2005, published 2009).

Each structure is given as a SMILES string.

This series is described as follows: log p. In kind it is physicochemical.

The molecule `Fc1cc(F)c(-c2c(Cl)nc3ncnn3c2N2CCC(C(F)(F)F)CC2)c(F)c1` [Example 160] came in with a log p of 3.41.
The molecule `Cc1cc(C)c(-c2c(Cl)nc3ncnn3c2N2CCOCC2)c(C)c1` [Example 161] registered a log p of 2.8.
Then `CC1CN(c2c(-c3ccccc3F)c(Cl)nc3ncnn23)CC(C)O1` (centres unmarked) [Example 162], with 2.67.
Then `Fc1ccccc1-c1c(Cl)nc2ncnn2c1N1CCCC1` [Example 163], with 2.49; and `Fc1ccccc1-c1c(Cl)nc2ncnn2c1N1CCCCC1` [Example 164], with 3.01; and `Fc1ccccc1-c1c(Cl)nc2ncnn2c1N1CCSCC1` [Example 165], with 2.68.
In the case of `Fc1ccccc1-c1c(Cl)nc2ncnn2c1N1CCC(C(F)(F)F)CC1` [Example 166] it was 3.23; in that of `Fc1cc(F)c(-c2c(Cl)nc3ncnn3c2N2CCCCC2)c(F)c1` [Example 173], 3.53.
Molecule `CN1CCN(c2c(-c3c(F)cc(C(F)(F)F)cc3Cl)c(Cl)nc3ncnn23)CC1` [Example 174] yielded a log p of 1.68.
Regarding `Fc1cc(C(F)(F)F)cc(Cl)c1-c1c(Cl)nc2ncnn2c1N1CCOCC1` [Example 175], the log p was determined as 3.07.
The molecule `Fc1cc(C(F)(F)F)cc(Cl)c1-c1c(Cl)nc2ncnn2c1N1CCCC1` [Example 176] had a log p of 3.5.
As to `Fc1cc(C(F)(F)F)cc(Cl)c1-c1c(Cl)nc2ncnn2c1N1CCCCC1` [Example 177], the log p is listed as 4.03.
In turn, `Fc1cc(C(F)(F)F)cc(Cl)c1-c1c(Cl)nc2ncnn2c1N1CCC(C(F)(F)F)CC1` [Example 178] had a log p of 4.18.
In the case of `Fc1cc(C(F)(F)F)cc(Cl)c1-c1c(Cl)nc2ncnn2c1N1CC=CCC1` [Example 179] it was 3.85.
The molecule `CC1CC(C)CN(c2c(-c3c(F)cc(C(F)(F)F)cc3Cl)c(Cl)nc3ncnn23)C1` (centres unmarked) [Example 180] returned a log p of 4.79.
Then `CC1CCCN(c2c(-c3c(F)cc(C(F)(F)F)cc3Cl)c(Cl)nc3ncnn23)C1` (centres unmarked) [Example 181], with 4.46.
`CC1CCN(c2c(-c3c(F)cc(C(F)(F)F)cc3Cl)c(Cl)nc3ncnn23)CC1` [Example 182] returned a log p of 4.37.
Consider `CC1=CCCN(c2c(-c3c(F)cc(C(F)(F)F)cc3Cl)c(Cl)nc3ncnn23)C1` [Example 183], for which the log p is on record as 4.23.
`CC1CCCN1c1c(-c2ccc(F)cc2F)c(Cl)nc2ncnn12` (centres unmarked) [Example 184] had a log p of 2.99.
Then `Fc1ccc(-c2c(Cl)nc3ncnn3c2N2CCCC2)c(F)c1` [Example 185], with 2.62.
Then `Fc1ccc(-c2c(Cl)nc3ncnn3c2N2CC=CCC2)c(F)c1` [Example 186], with 2.94; and `CC1CC(C)CN(c2c(-c3ccc(F)cc3F)c(Cl)nc3ncnn23)C1` (centres unmarked) [Example 187], with 3.9.
Consider `CC1CCCCN1c1c(-c2ccc(F)cc2F)c(Cl)nc2ncnn12` (centres unmarked) [Example 188], for which the log p was found to be 3.44.
With `CC1CCCN(c2c(-c3ccc(F)cc3F)c(Cl)nc3ncnn23)C1` (centres unmarked) [Example 189], the log p was 3.52.
`CC1CCN(c2c(-c3ccc(F)cc3F)c(Cl)nc3ncnn23)CC1` [Example 190] displayed a log p of 3.54.
Then `CC1(C)CCN(c2c(-c3ccc(F)cc3F)c(Cl)nc3ncnn23)CC1` [Example 191], with 3.8; and `CC1=CCCN(c2c(-c3ccc(F)cc3F)c(Cl)nc3ncnn23)C1` [Example 192], with 3.3.
Then `Fc1ccc(-c2c(Cl)nc3ncnn3c2N2CCC(C(F)(F)F)CC2)c(F)c1` [Example 193], with 3.34; and `Fc1ccc(-c2c(Cl)nc3ncnn3c2N2CCCCC2)c(F)c1` [Example 194], with 3.14; and `Fc1ccc(-c2c(Cl)nc3ncnn3c2N2CCOCC2)c(F)c1` [Example 195], with 2.19.
Then `Fc1ccc(-c2c(Cl)nc3ncnn3c2N2CCSCC2)c(F)c1` [Example 196], with 2.8; and `CN1CCN(c2c(-c3c(F)c(F)c(F)c(F)c3F)c(Cl)nc3ncnn23)CC1` [Example 197], with 1.43; and `Fc1c(F)c(F)c(-c2c(Cl)nc3ncnn3c2N2CCCCC2)c(F)c1F` [Example 198], with 3.61.
For `Fc1c(F)c(F)c(-c2c(Cl)nc3ncnn3c2N2CCOCC2)c(F)c1F` [Example 199], the log p was 2.69.
Then `Fc1ccccc1-c1c(Cl)nc2ncnn2c1N1CCOCC1` [Example 200], with 2.09; and `Fc1cc(F)c(-c2c(Cl)nc3ncnn3c2N2CCCCO2)c(F)c1` [Example 201], with 2.92; and `Fc1cccc(F)c1-c1c(Cl)nc2ncnn2c1N1CCCCC1C(F)(F)F` (centres unmarked) [Example 202], with 3.11.
In the case of `Fc1cc(F)c(-c2c(Cl)nc3ncnn3c2N2CCCO2)c(F)c1` [Example 203] it was 2.4; in that of `Fc1ccc(-c2c(Cl)nc3ncnn3c2N2CCCCO2)c(Cl)c1` [Example 204], 3.11.
For `Fc1ccc(-c2c(Cl)nc3ncnn3c2N2CCCCO2)c(F)c1` [Example 205], the log p amounted to 2.84.
Then `CC1CN(c2c(-c3c(F)c(F)c(F)c(F)c3F)c(Cl)nc3ncnn23)CC(C)O1` (centres unmarked) [Example 206], with 3.33; and `Fc1c(F)c(F)c(-c2c(Cl)nc3ncnn3c2N2CCCC2)c(F)c1F` [Example 207], with 3.11; and `Fc1c(F)c(F)c(-c2c(Cl)nc3ncnn3c2N2CCCCC2C(F)(F)F)c(F)c1F` (centres unmarked) [Example 208], with 4.09.
For the molecule `Fc1c(F)c(F)c(-c2c(Cl)nc3ncnn3c2N2CCSCC2)c(F)c1F` [Example 209], the log p was found to be 3.29.
The molecule `Fc1ccc(-c2c(Cl)nc3ncnn3c2N2CCCC2C(F)(F)F)c(F)c1` (centres unmarked) [Example 210] showed a log p of 3.2.
In turn, `Fc1cccc(Cl)c1-c1c(Cl)nc2ncnn2c1N1CC=CCO1` [Example 243] came in with a log p of 2.78.
`Fc1cccc(Cl)c1-c1c(Cl)nc2ncnn2c1N1CCCC=N1` [Example 244]: the log p stood at 2.58.
Take `Clc1ccc(-c2c(Cl)nc3ncnn3c2N2CCCCO2)c(Cl)c1` [Example 245]: the log p is given as 3.51.
Then `CC1C=CCN(c2c(-c3c(F)cc(F)cc3F)c(Cl)nc3ncnn23)O1` (centres unmarked) [Example 246], with 3.12; and `Clc1ccccc1-c1c(Cl)nc2ncnn2c1N1CCCC1` [Example 247], with 2.72; and `CC1CCCCN1c1c(-c2ccccc2Cl)c(Cl)nc2ncnn12` (centres unmarked) [Example 248], with 3.6.
The molecule `Fc1ccc(-c2c(Cl)nc3ncnn3c2N2CCCCN2)c(C(F)(F)F)c1` [Example 249] returned a log p of 2.98.
Molecule `Clc1nc2ncnn2c(N2CCCC2)c1-c1ccccc1` [Example 250] displayed a log p of 2.5.
The molecule `Clc1nc2ncnn2c(N2CCCCC2)c1-c1ccccc1` [Example 251] yielded a log p of 3.05.
Then `Clc1nc2ncnn2c(N2CCOCC2)c1-c1ccccc1` [Example 252], with 2.03; and `CC1CCN(c2c(-c3ccccc3)c(Cl)nc3ncnn23)CC1` [Example 253], with 3.47.
Turning to `Clc1ccc(-c2c(Cl)nc3ncnn3c2N2CCOCC2)c(Cl)c1` [Example 254], the log p was 2.78.
Then `CC1CCCN1c1c(-c2ccccc2Cl)c(Cl)nc2ncnn12` (centres unmarked) [Example 255], with 3.1.
`CC1CCN(c2c(-c3ccccc3Cl)c(Cl)nc3ncnn23)CC1` [Example 256] had a log p of 3.71.
Turning to `Clc1ccccc1-c1c(Cl)nc2ncnn2c1N1CCCCC1` [Example 257], the log p worked out at 3.26.
In the case of `CC1CCCN1c1c(-c2ccccc2)c(Cl)nc2ncnn12` (centres unmarked) [Example 258] it was 2.87; in that of `CC1CCCCN1c1c(-c2ccccc2)c(Cl)nc2ncnn12` (centres unmarked) [Example 259], 3.35.
The molecule `Fc1cccc(Cl)c1-c1c(Cl)nc2ncnn2c1N1CCCN1` [Example 260] yielded a log p of 2.29.
Then `Fc1ccc(-c2c(Cl)nc3ncnn3c2N2CCCN2)c(Cl)c1` [Example 261], with 2.39; and `Fc1cc(F)c(-c2c(Cl)nc3ncnn3c2N2CCCN2)c(F)c1` [Example 262], with 2.32; and `Clc1ccccc1-c1c(Cl)nc2ncnn2c1N1CCCN1` [Example 263], with 2.2.
As to `CC1CNN(c2c(-c3c(F)cccc3Cl)c(Cl)nc3ncnn23)CC1C` (centres unmarked) [Example 264], the log p was found to be 3.32.
In the case of `CC1CCN(c2c(-c3ccc(F)cc3Cl)c(Cl)nc3ncnn23)NC1` (centres unmarked) [Example 265] it was 3.22; in that of `CC1CNN(c2c(-c3ccc(F)cc3Cl)c(Cl)nc3ncnn23)CC1C` (centres unmarked) [Example 266], 3.43; in that of `CC1CCN(c2c(-c3c(F)cccc3Cl)c(Cl)nc3ncnn23)NC1` (centres unmarked) [Example 267], 3.01.
In the case of `Cc1cc(C)n(-c2c(-c3c(F)cccc3Cl)c(Cl)nc3ncnn23)n1` [Example 268] it was 2.87; in that of `Cc1cc(C)n(-c2c(-c3ccc(F)cc3Cl)c(Cl)nc3ncnn23)n1` [Example 269], 2.94; in that of `CC1CNN(c2c(-c3c(F)cc(F)cc3F)c(Cl)nc3ncnn23)CC1C` (centres unmarked) [Example 270], 3.35.
In the case of `CC1CCN(c2c(-c3ccccc3Cl)c(Cl)nc3ncnn23)NC1` (centres unmarked) [Example 271] it was 3.
In turn, `CC1C=NN(c2c(-c3ccccc3Cl)c(Cl)nc3ncnn23)CC1` (centres unmarked) [Example 272] registered a log p of 2.79.
In the case of `CC1C=NN(c2c(-c3c(F)cc(F)cc3F)c(Cl)nc3ncnn23)CC1` (centres unmarked) [Example 273], the log p came out at 2.85.
In the case of `CC1CCN(c2c(-c3c(F)cc(F)cc3F)c(Cl)nc3ncnn23)NC1` (centres unmarked) [Example 274] it was 3.05; in that of `CC1C=NN(c2c(-c3c(F)cccc3Cl)c(Cl)nc3ncnn23)CC1C` (centres unmarked) [Example 275], 3.15; in that of `CC1C=NN(c2c(-c3c(F)cc(F)cc3F)c(Cl)nc3ncnn23)CC1C` (centres unmarked) [Example 276], 3.14.
The molecule `CC1C=NN(c2c(-c3ccccc3Cl)c(Cl)nc3ncnn23)CC1C` (centres unmarked) [Example 277] yielded a log p of 3.1.
